Data as given in patent publication US11655235B2, “Pyrrolidine and piperidine compounds” (YUHAN CORPORATION, priority 2019, dated 2023).
pIC50: −log10 of the molar value. Where two headings read alike, the source gives them in different places.

Columns and labels:
Format in all cases: biochemical
DPP4 = DPP4 (Homo sapiens, UniProt P27487); test: DPP4 inhibition, fluorogenic substrate H-Gly-Pro-AMC; parameters: purchased R&D Systems
recombinant human DPP9 = target: T1, recombinant human DPP9 (Homo sapiens, UniProt Q86TI2); test: DPP9 inhibition, fluorogenic substrate H-Gly-Pro-AMC
T1 construct: purchased R&D Systems
T1 sequence (Q86TI2 whole entry): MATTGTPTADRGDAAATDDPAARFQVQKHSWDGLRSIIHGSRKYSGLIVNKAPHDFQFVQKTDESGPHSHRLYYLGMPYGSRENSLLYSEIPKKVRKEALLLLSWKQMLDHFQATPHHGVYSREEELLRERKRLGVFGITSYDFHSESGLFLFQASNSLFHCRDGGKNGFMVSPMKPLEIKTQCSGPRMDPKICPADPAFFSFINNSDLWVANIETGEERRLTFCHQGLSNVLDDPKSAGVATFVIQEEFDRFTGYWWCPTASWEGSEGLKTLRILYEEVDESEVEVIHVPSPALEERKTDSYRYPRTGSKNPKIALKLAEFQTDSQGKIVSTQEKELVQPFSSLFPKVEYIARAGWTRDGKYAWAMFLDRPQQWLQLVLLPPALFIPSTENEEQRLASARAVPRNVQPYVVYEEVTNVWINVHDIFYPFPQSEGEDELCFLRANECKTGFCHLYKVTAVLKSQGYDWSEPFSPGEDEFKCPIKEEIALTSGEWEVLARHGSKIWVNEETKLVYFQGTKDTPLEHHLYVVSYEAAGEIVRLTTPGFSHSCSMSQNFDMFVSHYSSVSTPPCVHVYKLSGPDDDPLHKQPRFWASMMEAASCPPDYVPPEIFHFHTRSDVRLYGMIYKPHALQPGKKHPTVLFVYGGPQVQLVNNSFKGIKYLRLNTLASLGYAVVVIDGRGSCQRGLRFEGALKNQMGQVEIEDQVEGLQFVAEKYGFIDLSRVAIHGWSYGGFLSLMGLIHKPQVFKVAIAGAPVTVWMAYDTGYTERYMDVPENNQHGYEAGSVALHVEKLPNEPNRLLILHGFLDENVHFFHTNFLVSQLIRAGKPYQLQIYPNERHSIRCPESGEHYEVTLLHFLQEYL
Method in brief: (§1)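 Inhibitors are titrated in an 8-point series into the enzyme's assay buffer (DMSO no more than 0.5%). Substrate cleavage at 25 °C is followed by fluorescence, excitation 380 nm and emission 460 nm. IC50 values come from a four-variable logistic model.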

recombinant human PREP = target: T2, recombinant human PREP (Homo sapiens, UniProt P48147); test: PREP inhibition, fluorogenic substrate Z-Gly-Pro-AMC; conditions: Inhibitory Activity (IC50, nM) PREP
T2 construct: purchased R&D System
T2 sequence (P48147 1-710): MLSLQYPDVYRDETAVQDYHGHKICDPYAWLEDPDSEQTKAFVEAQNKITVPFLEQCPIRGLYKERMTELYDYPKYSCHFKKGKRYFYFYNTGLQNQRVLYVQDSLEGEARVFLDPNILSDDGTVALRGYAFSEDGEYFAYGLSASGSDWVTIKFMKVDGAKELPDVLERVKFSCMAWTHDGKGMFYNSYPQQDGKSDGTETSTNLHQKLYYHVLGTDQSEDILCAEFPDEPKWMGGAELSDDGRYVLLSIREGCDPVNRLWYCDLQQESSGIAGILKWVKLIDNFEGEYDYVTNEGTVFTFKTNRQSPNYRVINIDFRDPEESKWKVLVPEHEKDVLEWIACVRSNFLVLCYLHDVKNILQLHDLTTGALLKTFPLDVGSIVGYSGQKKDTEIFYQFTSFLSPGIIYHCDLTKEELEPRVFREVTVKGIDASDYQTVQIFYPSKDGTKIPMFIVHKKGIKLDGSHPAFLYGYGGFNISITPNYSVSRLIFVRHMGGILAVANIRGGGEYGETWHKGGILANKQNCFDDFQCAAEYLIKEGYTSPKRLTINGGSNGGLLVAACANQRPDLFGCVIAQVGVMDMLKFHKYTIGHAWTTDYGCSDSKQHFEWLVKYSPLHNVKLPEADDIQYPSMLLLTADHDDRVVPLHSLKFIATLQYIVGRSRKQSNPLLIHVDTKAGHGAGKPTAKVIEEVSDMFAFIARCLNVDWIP
Method in brief: as §1

recombinant human DPP8 = target: T3, recombinant human DPP8 (Homo sapiens, UniProt Q6V1X1); test: DPP8 inhibition, fluorogenic substrate Z-Ala-Pro-AMC
T3 construct: purchased PBS Bioscience
T3 sequence (Q6V1X1 whole entry): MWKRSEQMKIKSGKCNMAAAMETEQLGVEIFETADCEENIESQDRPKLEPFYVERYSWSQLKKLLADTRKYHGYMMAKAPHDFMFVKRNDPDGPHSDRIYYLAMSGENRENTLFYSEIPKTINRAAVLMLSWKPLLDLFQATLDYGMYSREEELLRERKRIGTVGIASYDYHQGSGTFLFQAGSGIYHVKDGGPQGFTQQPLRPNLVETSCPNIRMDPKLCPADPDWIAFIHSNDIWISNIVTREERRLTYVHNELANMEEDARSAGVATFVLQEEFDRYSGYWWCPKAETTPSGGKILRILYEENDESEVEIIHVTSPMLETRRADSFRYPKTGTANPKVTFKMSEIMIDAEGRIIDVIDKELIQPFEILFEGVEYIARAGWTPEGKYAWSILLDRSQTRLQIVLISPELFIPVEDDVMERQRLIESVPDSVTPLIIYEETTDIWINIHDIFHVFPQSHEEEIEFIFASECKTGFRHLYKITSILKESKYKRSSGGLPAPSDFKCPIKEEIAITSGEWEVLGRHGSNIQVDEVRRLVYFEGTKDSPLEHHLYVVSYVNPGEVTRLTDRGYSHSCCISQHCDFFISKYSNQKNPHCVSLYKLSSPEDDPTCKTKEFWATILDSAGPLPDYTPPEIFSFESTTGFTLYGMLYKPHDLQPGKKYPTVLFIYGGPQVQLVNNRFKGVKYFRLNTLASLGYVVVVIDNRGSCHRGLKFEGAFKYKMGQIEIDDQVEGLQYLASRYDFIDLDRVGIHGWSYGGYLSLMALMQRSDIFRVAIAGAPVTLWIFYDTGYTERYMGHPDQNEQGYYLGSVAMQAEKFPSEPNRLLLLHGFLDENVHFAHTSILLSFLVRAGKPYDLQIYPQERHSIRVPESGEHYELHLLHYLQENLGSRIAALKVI
Method in brief: as §1

recombinant human DPP7 = target: T4, recombinant human DPP7 (Homo sapiens, UniProt Q9UHL4); test: DPP7 inhibition, fluorogenic substrate Lys-Pro-AMC
T4 construct: purchased R&D Systems
Method in brief: as §1

Recombinant human FAP = target: T5, Recombinant human FAP (Homo sapiens, UniProt Q12884); test: FAP inhibition, fluorogenic substrate Z-Gly-Pro-AMC
T5 construct: purchased R&D systems
T5 sequence (Q12884 1-760): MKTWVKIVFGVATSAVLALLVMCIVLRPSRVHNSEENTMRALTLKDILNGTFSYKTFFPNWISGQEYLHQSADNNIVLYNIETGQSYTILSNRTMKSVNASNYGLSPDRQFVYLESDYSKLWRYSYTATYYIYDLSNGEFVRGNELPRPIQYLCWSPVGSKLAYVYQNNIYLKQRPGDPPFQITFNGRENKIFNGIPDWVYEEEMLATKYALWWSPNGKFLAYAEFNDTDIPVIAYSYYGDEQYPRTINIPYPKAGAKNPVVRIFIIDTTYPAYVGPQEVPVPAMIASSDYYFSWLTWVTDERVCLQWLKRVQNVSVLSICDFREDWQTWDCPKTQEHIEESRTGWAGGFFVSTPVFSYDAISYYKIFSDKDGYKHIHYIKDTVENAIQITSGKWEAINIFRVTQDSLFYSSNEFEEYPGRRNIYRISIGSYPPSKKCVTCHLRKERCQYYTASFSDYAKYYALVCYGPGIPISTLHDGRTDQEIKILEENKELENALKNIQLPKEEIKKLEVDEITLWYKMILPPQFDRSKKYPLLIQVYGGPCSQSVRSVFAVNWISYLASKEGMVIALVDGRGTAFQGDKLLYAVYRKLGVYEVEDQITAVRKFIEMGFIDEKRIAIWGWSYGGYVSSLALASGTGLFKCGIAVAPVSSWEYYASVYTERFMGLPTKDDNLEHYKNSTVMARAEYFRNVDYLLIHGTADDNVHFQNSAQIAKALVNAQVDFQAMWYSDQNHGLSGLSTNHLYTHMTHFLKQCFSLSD
Method in brief: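 Eight-point compound dilutions (≤0.1% DMSO) were incubated at 25° C with 10 ng recombinant human FAP in Tris pH 7.5/1 M NaCl/BSA buffer and Z-Gly-Pro-AMC. Inhibition was taken as % drop in fluorescence rate (380/460 nm) against uninhibited control; IC50 came from a four-parameter logistic fit.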

[1] = 25° C., H-Gly-Pro-AMC substrate
[2] = 25° C., Z-Gly-Pro-AMC substrate
[3] = recombinant human FAP, substrate Z-Gly-Pro-AMC

Chain of DPP4 (P27487 whole entry): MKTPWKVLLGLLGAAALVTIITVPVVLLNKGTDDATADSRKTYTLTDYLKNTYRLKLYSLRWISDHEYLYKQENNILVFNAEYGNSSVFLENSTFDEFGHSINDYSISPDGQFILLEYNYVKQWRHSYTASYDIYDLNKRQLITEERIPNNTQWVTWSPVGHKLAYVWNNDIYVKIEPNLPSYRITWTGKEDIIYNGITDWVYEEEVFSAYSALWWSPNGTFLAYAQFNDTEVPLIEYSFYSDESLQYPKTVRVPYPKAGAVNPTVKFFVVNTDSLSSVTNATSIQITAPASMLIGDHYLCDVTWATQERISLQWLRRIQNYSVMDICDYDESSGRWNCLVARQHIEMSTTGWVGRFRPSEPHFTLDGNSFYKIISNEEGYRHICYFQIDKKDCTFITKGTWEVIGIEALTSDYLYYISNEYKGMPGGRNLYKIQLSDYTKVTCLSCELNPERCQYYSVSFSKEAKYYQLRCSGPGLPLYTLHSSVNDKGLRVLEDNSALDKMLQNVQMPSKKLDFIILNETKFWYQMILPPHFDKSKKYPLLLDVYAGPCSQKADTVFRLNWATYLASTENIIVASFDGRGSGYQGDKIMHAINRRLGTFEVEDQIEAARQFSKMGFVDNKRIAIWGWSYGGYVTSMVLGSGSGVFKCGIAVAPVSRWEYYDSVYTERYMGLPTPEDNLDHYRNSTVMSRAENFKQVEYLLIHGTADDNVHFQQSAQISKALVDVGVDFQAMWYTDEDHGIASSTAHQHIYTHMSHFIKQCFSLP

pIC50 (DPP4; [1]) | pIC50 (recombinant human DPP9; [1]) | IC50 (recombinant human PREP; [2]) [nM] | pIC50 (recombinant human DPP8; 25° C., Z-Ala-Pro-AMC substrate) | pIC50 (recombinant human DPP7) | pIC50 (Recombinant human FAP; [2]) | pIC50 (DPP4; recombinant human DPP4) | pIC50 (recombinant human DPP9; recombinant human DPP9) | IC50 (recombinant human PREP; recombinant human PREP) [nM] | pIC50 (recombinant human DPP8; recombinant human DPP8) | pIC50 (recombinant human DPP7; recombinant human DPP7) | pIC50 (Recombinant human FAP; [3]) | Structure (SMILES)
 |  |  |  |  |  | < 5.00 | 4.36 | 9980 | 4.13 | 5.14 | 8.22 | Cc1ccc2ncccc2c1N[C@H]1CCN(CC(=O)N2CCC[C@H]2C#N)C1 [Example 239, (2S)-1-[2-[(3S)-3-[(6-methyl-5-quinolyl)amino]pyrrolidin-1-yl]acetyl]pyrrolidine-2-carbonitrile]
 |  |  |  |  |  | < 5.00 | 4.32 | 13000 | 4.11 | 4.77 | 8.35 | N#C[C@@H]1CCCN1C(=O)CN1CC[C@H](Nc2c(F)ccc3ncccc23)C1 [Example 241, (2S)-1-[2-[(3S)-3-[(6-fluoro-5-quinolyl)amino]pyrrolidin-1-yl]acetyl]pyrrolidine-2-carbonitrile]
 |  |  |  |  |  | < 5.00 | 4.71 | 8440 | 4.96 | 5.77 | 8.77 | Cc1ccc(N[C@H]2CCN(CC(=O)N3CCC[C@H]3C#N)C2)c2cccnc12 [Example 242, (2S)-1-[2-[(3S)-3-[(8-methyl-5-quinolyl)amino]pyrrolidin-1-yl]acetyl]pyrrolidine-2-carbonitrile]
 |  |  |  |  |  | < 5.00 | 4.68 | 11300 | < 4.52 | 5.59 | 9.05 | N#C[C@@H]1CCCN1C(=O)CN1CC[C@H](Nc2ccc(OC(F)(F)F)c3ncccc23)C1 [Example 246, (2S)-1-[2-[(3S)-3-[[8-(trifluoromethoxy)-5-quinolyl]amino]pyrrolidin-1-yl]acetyl]pyrrolidine-2-carbonitrile]
 |  |  |  |  |  | 5.15 | 5.43 | 6160 | 5.27 | 6.09 | 8.51 | N#C[C@@H]1CCCN1C(=O)CN1CC[C@H](Nc2ccc(OCc3ccccc3)c3ncccc23)C1 [Example 248, (2S)-1-[2-[(3S)-3-[(8-benzyloxy-5-quinolyl)amino]pyrrolidin-1-yl]acetyl]pyrrolidine-2-carbonitrile]
 |  |  |  |  |  | 5.84 | 5.24 | 1050 | < 5.52 | 6.31 | 8.22 | N#C[C@@H]1C[C@H](F)CN1C(=O)CN1CC[C@H](Nc2cnc3ccccc3c2)C1 [Example 249, (2S,4S)-4-fluoro-1-[2-[(3S)-3-(3-quinolylamino)pyrrolidin-1-yl]acetyl]pyrrolidine-2-carbonitrile]
 |  |  |  |  |  | 6.02 | 5.43 | 2160 | 5.64 | 6.18 | 8.47 | N#C[C@@H]1C[C@H](F)CN1C(=O)CN1CC[C@H](Nc2ccc3ncccc3c2)C1 [Example 250, (2S,4S)-4-fluoro-1-[2-[(3S)-3-(6-quinolylamino)pyrrolidin-1-yl]acetyl]pyrrolidine-2-carbonitrile]
 |  |  |  |  |  | 5.79 | 5.31 | 3320 | 5.60 | 6.51 | 9.10 | N#Cc1ccc2c(N[C@H]3CCN(CC(=O)N4C[C@@H](F)C[C@H]4C#N)C3)cccc2n1 [Example 252, 5-[[(3S)-1-[2-oxo-2-[(2S,4S)-2-cyano-4-fluoro-pyrrolidin-1-yl]ethyl]pyrrolidin-3-yl]amino]quinoline-2-carbonitrile]

The remaining lines, values behind:

Structure (SMILES) | pIC50 (DPP4; [1]) | pIC50 (recombinant human DPP9; [1]) | IC50 (recombinant human PREP; [2]) [nM] | pIC50 (recombinant human DPP8; 25° C., Z-Ala-Pro-AMC substrate) | pIC50 (recombinant human DPP7) | pIC50 (Recombinant human FAP; [2]) | pIC50 (DPP4; recombinant human DPP4) | pIC50 (recombinant human DPP9; recombinant human DPP9) | IC50 (recombinant human PREP; recombinant human PREP) [nM] | pIC50 (recombinant human DPP8; recombinant human DPP8) | pIC50 (recombinant human DPP7; recombinant human DPP7) | pIC50 (Recombinant human FAP; [3])
COc1ccc2c(C(=O)N[C@H]3CCN(CC(=O)N4C[C@@H](F)C[C@H]4C#N)C3)coc2c1 [Example 136, 6-methoxy-N-[(3S)-1-[2-oxo-2-[(2S,4S)-2-cyano-4-fluoro-pyrrolidin-1-yl]ethyl]pyrrolidin-3-yl]benzofuran-3-carboxamide] | 5.04 | 4.84 | 5150 | 4.65 | 5.71 | 7.91 |  |  |  |  |  | 
N#C[C@@H]1CCCN1C(=O)CN1CC[C@H](Nc2cnc3ccccc3c2)C1 [Example 229, (2S)-1-[2-[(3S)-3-(3-quinolylamino)pyrrolidin-1-yl]acetyl]pyrrolidine-2-carbonitrile] |  |  |  |  |  |  | < 5.00 | 4.44 | 4840 | < 4.00 | 5.94 | 7.77
N#C[C@@H]1CCCN1C(=O)CN1CC[C@H](Nc2ccc3ncccc3c2)C1 [Example 230, (2S)-1-[2-[(3S)-3-(6-quinolylamino)pyrrolidin-1-yl]acetyl]pyrrolidine-2-carbonitrile] |  |  |  |  |  |  | < 5.00 | 4.76 | 8770 | < 4.00 | 5.87 | 8.03
N#Cc1ccc2c(N[C@H]3CCN(CC(=O)N4CCC[C@H]4C#N)C3)cccc2n1 [Example 231, 5-[[(3S)-1-[2-oxo-2-[(2S)-2-cyanopyrrolidin-1-yl]ethyl]pyrrolidin-3-yl]amino]quinoline-2-carbonitrile] |  |  |  |  |  |  | < 5.00 | 4.67 | 11500 | 4.90 | 5.82 | 9.00
N#C[C@@H]1CCCN1C(=O)CN1CC[C@H](Nc2cccc3ncc(Cl)cc23)C1 [Example 235, (2S)-1-[2-[(3S)-3-[(3-chloro-5-quinolyl)amino]pyrrolidin-1-yl]acetyl]pyrrolidine-2-carbonitrile] |  |  |  |  |  |  | < 5.00 | 4.75 | 8460 | 4.63 | 5.55 | 9.15
N#C[C@@H]1CCCN1C(=O)CN1CC[C@H](Nc2cc(F)cc3ncccc23)C1 [Example 236, (2S)-1-[2-[(3S)-3-[(7-fluoro-5-quinolyl)amino]pyrrolidin-1-yl]acetyl]pyrrolidine-2-carbonitrile] |  |  |  |  |  |  | < 5.00 | 4.72 | 8900 | < 4.00 | 5.46 | 8.82
COc1cc(N[C@H]2CCN(CC(=O)N3CCC[C@H]3C#N)C2)c2cccnc2c1 [Example 237, (2S)-1-[2-[(3S)-3-[(7-methoxy-5-quinolyl)amino]pyrrolidin-1-yl]acetyl]pyrrolidine-2-carbonitrile] |  |  |  |  |  |  | 5.03 | 4.46 | 6600 | 4.65 | 6.13 | 8.82
N#C[C@@H]1CCCN1C(=O)CN1CC[C@H](Nc2cc(C(F)(F)F)cc3ncccc23)C1 [Example 238, (2S)-1-[2-[(3S)-3-[[7-(trifluoromethyl)-5-quinolyl]amino]pyrrolidin-1-yl]acetyl]pyrrolidine-2-carbonitrile] |  |  |  |  |  |  | < 5.00 | 4.53 | 3930 | < 4.00 | 5.66 | 8.85
